Assay results from patent EP1000062B1, “TRICYCLIC VASOPRESSIN AGONISTS” (Wyeth, priority 1997, dated 1999).

What was measured:
Format in all cases: in vivo
Vasopressin V2 [1] = assay: Vasopressin V2 agonist effects of test compounds in normal conscious water-loaded rats; conditions: Sprague-Dawley (CD) rats, oral 1 mg/kg, urine collected for four hours; for Osmolality (% Increase): change in osmolality as percent of control; for Urine Volume (% decrease): vs. control
Vasopressin V2 [2] = assay: Vasopressin V2 agonist effects of test compounds in normal conscious homozygous Brattleboro rats with central diabetes insipidus; conditions: Brattleboro (BB) rats, oral 10 mg/kg, urine collected for six hours; for Osmolality (% Increase): change in osmolality as percent of control; for Urine Volume (% decrease): vs. control
Description: Vasopressin V2 Agonist Effects of Test Compounds in Normal Conscious Homozygous Brattleboro Rats with Central Diabetes Insipidus
Male or female homozygous Brattleboro rats (Harlan Sprague Dawley, Inc., Indianapolis, IN) of 250-350 g body weight were supplied with standard rodent diet (Purina Rodent Lab. Chow 5001) and water ad libitum. On the day of test, rats were placed individually into metabolic cages equipped with devices to separate the feces from the urine and containers for collection of urine. Test compound or reference agent was given at an oral dose of 1 to 10 mg/kg in a volume of 10 ml /kg. The vehicle used was 20% dimethylsulfoxide (DMSO) in 2.5% preboiled corn starch. During the test, rats were provided with water ad libitum. Urine was collected for six hours after dosing of the test compound. At the end of six hours, urine volume was measured. Urinary osmolality was determined using a Fiske One-Ten Osmometer (Fiske Associates, Norwood, MA, 02062) or an Advanced CRYOMATIC Osmometer, Model 3C2 (Advanced Instruments, Norwood, MA). Determinations of Na^+, K^+ and Cl^- ion were carried out using ion specific electrodes in a Beckman SYNCHRON EL-ISE Electrolyte System analyzer. This animal model was mainly used for evaluation of potency and duration of action of the active compounds.

Vasopressin V2 [3] = assay: Vasopressin V2 agonist effects of test compounds in normal conscious water-loaded rats; conditions: Sprague-Dawley (CD) rats, oral 10 mg/kg, urine collected for four hours; for Osmolality (% Increase): change in osmolality as percent of control; for Urine Volume (% decrease): vs. control
Protocol: Vasopressin V2 Agonist Effects of Test Compounds in Normal Conscious Water-Loaded Rats:
On the day of test, rats were placed individually into metabolic cages equipped with devices to separate the feces from the urine and containers for collection of urine. Test compound or reference agent was given at an oral dose of 10 mg/kg in a volume of 10 ml /kg. […] Thirty minutes after dosing the test compound, rats were gavaged with water at 30 ml /kg into the stomach using a feeding needle. During the test, rats were not provided with water or food. Urine was collected for four hours after dosing of the test compound. At the end of four hours, urine volume was measured. […] Determinations of Na^+, K^+ and Cl^- ion were carried out using ion specific electrodes in a Beckman SYNCHRON EL-ISE Electrolyte System analyzer. […] In the screening test, two rats were used for each compound. If the difference in the urine volume of the two rats was greater than 50%, a third rat was used.

Row | Compound | Osmolality (% Increase) (Vasopressin V2 [3]) [%] | Urine Volume (% decrease) (Vasopressin V2 [3]) [%] | also measured
1 | Cc1ccn(-c2ccc(C(=O)N3Cc4cccn4Cc4ccccc43)c(C(F)(F)F)c2)n1 [Example 2, [4-(3-Methyl-pyrazol-1-yl)-2-trifluoromethyl-phenyl](5H,11H-pyrrolo[2,1-c]-[1,4]benzadiazepin-10-yl)-methanone] |  |  | Osmolality (% Increase) (Vasopressin V2 [1]): 306% (1 mg/kg); Urine Volume (% decrease) (Vasopressin V2 [1]): 80% (1 mg/kg)
2 | Cc1ccn(-c2ncc(C(=O)N3Cc4cccn4Cc4ccccc43)c(C(F)(F)F)n2)n1 [Example 20, [2-(3-Methyl-pyrazol-1-yl)-4-trifluoromethyl-pyrimidin-5-yl]-(5H,11H-pyrrolo[2,1-c][1,4]benzodiazepin-10-yl)-methanone] |  |  | Osmolality (% Increase) (Vasopressin V2 [1]): 152% (1 mg/kg); Urine Volume (% decrease) (Vasopressin V2 [1]): 25% (1 mg/kg)
3 | CC(=O)n1ccc(-c2ccc(C(=O)N3Cc4cccn4Cc4ccccc43)cc2)n1 [Example 30, 1-{3-[4-(5H,11H-Pyrrolo[2,1-c][1,4]benzodiazepine-10-carbonyl)-phenyl]-pyrazol-1-yl}-ethanone] |  |  | Osmolality (% Increase) (Vasopressin V2 [2]): 334%; Urine Volume (% decrease) (Vasopressin V2 [2]): 81%
4 | O=C(c1ccc(-c2ccn(C(=O)c3cccs3)n2)cc1)N1Cc2cccn2Cc2ccccc21 [Example 34, (5H,11H-Pyrrolo[2,1-c][1,4]benzodiazepin-10-yl)-{4-[1-(thiophene-2-carbonyl)-1H-pyrazoly-3-yl]phenyl}-methanone] |  |  | Osmolality (% Increase) (Vasopressin V2 [2]): 407%; Urine Volume (% decrease) (Vasopressin V2 [2]): 76%
5 | Cc1ccccc1C(=O)n1ccc(-c2ccc(C(=O)N3Cc4cccn4Cc4ccccc43)cc2)n1 [Example 36, {4-[1-(2-Methyl-benzoyl)-1H-pyrazol-3-yl]-phenyl}-(5H,11H-pyrrolo[2,1-c][1,4]benzodiazepin-10-yl)-methanone] |  |  | Osmolality (% Increase) (Vasopressin V2 [2]): 164%; Urine Volume (% decrease) (Vasopressin V2 [2]): 66%
6 | O=C(c1ccc(-c2ccn(C(=O)c3ccc(Cl)cc3Cl)n2)cc1)N1Cc2cccn2Cc2ccccc21 [Example 38, {4-[1-(2,4-Dichloro-benzoyl)-1H-pyrazol-3-yl]-phenyl}-(5H,11H-pyrrolo[2,1-c][1,4]benzodiazepin-10-yl)-methanone] |  |  | Osmolality (% Increase) (Vasopressin V2 [2]): 256%; Urine Volume (% decrease) (Vasopressin V2 [2]): 66%
7 | Cn1ncnc1-c1ccc(C(=O)N2Cc3cccn3Cc3ccccc32)cc1 [Example 49, [4-(2-Methyl-2H-[1,2,4]triazol-3-yl)-phenyl]-(5H,11H-pyrrolo[2,1-c][1,4]-benzodiazepin-10-yl)-methanone] |  |  | Osmolality (% Increase) (Vasopressin V2 [2]): 221%; Urine Volume (% decrease) (Vasopressin V2 [2]): 74%
8 | COc1cc(-n2ccc(C)n2)ccc1C(=O)N1Cc2cccn2Cc2ccccc21 [Example 107, [2-Methoxy-4-(3-methyl-pyrazol-1-yl)-phenyl](5H,11H-pyrrolo[2,1-c][1,4]-benzodiazepin-10-yl) methanone] | 125 | 31 | 
9 | COc1cc(-n2ccc(C)n2)ccc1C(=O)N1Cc2ccc(CN(C)C)n2Cc2ccccc21 [Example 108, (3-Dimethylaminomethyl-5H,11H-pyrrolo[2,1-c][1,4]benzodiazepin-10-yl)[2-methoxy-4-(3-methyl-pyrazol-1-yl)-phenyl]-methanone] | 145 | 30 | 
10 | Cc1ccn(-c2ccc(C(=O)N3Cc4cccn4Cc4ccccc43)c(O)c2)n1 [Example 109] | 95 | 21 | 
11 | Cn1cc(-c2ccc(C(=O)N3Cc4cccn4Cc4ccccc43)c(Cl)c2)cn1 [Example 115, [2-Chloro-4-(1-methyl-1H-pyrazol-4-yl)phenyl) (5H,11H-pyrrolo[2,1-c][1,4]-benzodiazepin-10-yl)-methanone] | 229 | 66 | 
12 | Cc1ccn(-c2ccc(C(=O)N3Cc4ccnn4Cc4ccccc43)c(Cl)c2)n1 [Example 116, [2-Chloro-4-(3-methyl-pyrazol-1-yl)-phenyl]-(4H,10H-pyrazolo[5,1-c][1,4]-benzodiazepin-5-yl)-methanone] | 256 | 66 | 
13 | Cc1ccn(-c2ccc(C(=O)N3Cc4nnnn4Cc4ccccc43)c(Cl)c2)n1 [Example 117] | 311 | 68 | 
14 | Cn1ccc(-c2ccc(C(=O)N3Cc4ccnn4Cc4ccccc43)cc2)n1 [Example 120A, [4-(1-Methyl-1H-pyrazol-3-yl)phenyl](4H,10H-pyrazolo[5,1c][1,4]-benzodiazepin-5-yl) methanone] | 269 | 66 | 
15 | Cn1nccc1-c1ccc(C(=O)N2Cc3ccnn3Cc3ccccc32)cc1 [Example 120B, [4-(2-Methyl-1H-pyrazol-3-yl)phenyl](4H,10H-pyrazolo[5,1c][1,4]-benzodiazepin-5-yl) methanone] | 272 | 67 | 
16 | CC(=O)c1ccc(C(=O)N2Cc3cccn3Cc3ccccc32)c(Cl)c1 [Example 121, 1-[4-(5H,11H-pyrrolo[2,1-c][1,4]benzodiazepine-10-carbonyl)-3-chlorophenyl]-ethanone] | 155 | 22 | 
17 | [2-Chloro-4-(3-methyl-4-ethynyl-phenyl) (5H,11H-pyrrolo[2,1-c][1,4]-benzodiazepin-10-yl)-methanone [Example 123] | 663 | 88 | 
